Measurements as given in PMC13415951 (Journal of Experimental Botany, 2026).
Substitutions are numbered along the chain they refer to.

Legend:
[1] = target: T1, HvUGT13248 (Hordeum vulgare subsp. vulgare, UniProt M0Y4P1)
T1 sequence (M0Y4P1 1-475): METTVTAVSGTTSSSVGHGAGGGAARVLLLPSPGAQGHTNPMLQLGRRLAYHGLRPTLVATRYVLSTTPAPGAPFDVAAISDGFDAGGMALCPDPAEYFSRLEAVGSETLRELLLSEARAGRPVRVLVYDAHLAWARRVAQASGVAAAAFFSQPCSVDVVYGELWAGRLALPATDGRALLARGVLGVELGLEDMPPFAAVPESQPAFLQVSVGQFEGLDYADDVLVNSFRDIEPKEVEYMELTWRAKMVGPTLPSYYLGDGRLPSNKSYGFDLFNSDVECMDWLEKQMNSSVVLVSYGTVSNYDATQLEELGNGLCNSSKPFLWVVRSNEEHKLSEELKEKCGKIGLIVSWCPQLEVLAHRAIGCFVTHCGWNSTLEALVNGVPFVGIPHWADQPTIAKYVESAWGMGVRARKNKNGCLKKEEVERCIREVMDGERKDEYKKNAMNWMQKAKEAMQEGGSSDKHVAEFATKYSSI

[2] = tested on: Heliothis zea larvae; parameters: method as in Dowd et al., 1989; conditions: ref Dowd et al., 1989; cited from earlier work
[3] = target: T2, BdUGT5g03300 (Brachypodium distachyon, UniProt I1IW79); assay type: biochemical
T2 sequence (I1IW79 1-469): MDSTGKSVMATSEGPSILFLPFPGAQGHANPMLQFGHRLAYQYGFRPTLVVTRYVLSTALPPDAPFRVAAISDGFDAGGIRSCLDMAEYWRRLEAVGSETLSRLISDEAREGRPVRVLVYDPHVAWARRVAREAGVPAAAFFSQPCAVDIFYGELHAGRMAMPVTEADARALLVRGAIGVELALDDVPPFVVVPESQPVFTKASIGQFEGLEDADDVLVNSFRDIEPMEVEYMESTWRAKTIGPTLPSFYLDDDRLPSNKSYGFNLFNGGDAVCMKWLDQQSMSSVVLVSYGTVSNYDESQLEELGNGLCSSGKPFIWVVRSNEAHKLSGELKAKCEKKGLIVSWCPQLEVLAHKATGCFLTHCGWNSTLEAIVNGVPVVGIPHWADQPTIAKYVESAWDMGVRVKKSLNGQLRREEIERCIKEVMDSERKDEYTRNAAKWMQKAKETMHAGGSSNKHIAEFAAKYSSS

[4] = target: T3, OsUGT79 H122A/L123A/Q202A (Oryza sativa subsp. japonica, UniProt Q7XT97, H122A/L123A/Q202A); experiment: biochemical; assay type: biochemical
T3 sequence (Q7XT97 1-466 H122A/L123A/Q202A): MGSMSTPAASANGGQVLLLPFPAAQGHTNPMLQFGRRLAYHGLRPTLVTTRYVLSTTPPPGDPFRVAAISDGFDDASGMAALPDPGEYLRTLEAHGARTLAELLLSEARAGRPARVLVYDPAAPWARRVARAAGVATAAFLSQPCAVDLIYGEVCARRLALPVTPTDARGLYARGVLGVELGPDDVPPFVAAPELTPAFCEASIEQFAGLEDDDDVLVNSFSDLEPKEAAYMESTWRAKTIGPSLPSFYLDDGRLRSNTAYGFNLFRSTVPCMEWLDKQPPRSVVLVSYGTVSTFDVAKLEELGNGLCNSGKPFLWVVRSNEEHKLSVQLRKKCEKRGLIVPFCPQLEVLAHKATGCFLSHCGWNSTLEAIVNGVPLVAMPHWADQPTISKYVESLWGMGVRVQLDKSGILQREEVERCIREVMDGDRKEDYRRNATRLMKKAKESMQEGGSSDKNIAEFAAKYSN

[5] = target: T4, OsUGT79 Q202A (Oryza sativa subsp. japonica, UniProt Q7XT97, Q202A); assay type: biochemical
T4 sequence (Q7XT97 1-466 Q202A): T3 sequence (Q7XT97 1-466 H122A/L123A/Q202A) with A122H, A123L

[6] = target: T3, OsUGT79 H122A/L123A/Q202A; assay type: biochemical
[7] = tested on: human glucuronosyltransferases in liver microsomes; parameters: method as in Woelflingseder et al., 2019; conditions: ref Woelflingseder et al., 2019; cited from earlier work

CC1(C)CCC[C@]2(C)[C@@H]3[C@H]1[C@@H](O)[C@@]2(C)C[C@H]3O [CUL, culmorin]
Specific activity (glucoside formation) [1]: 6.94 ± 0.52 nmol/min/mg
Effect on growth of Heliothis zea larvae [2]: no negative effects
Effect on mortality of Heliothis zea larvae in combination with DON [2]: significantly increases mortality
Increase of apparent KM with DON [3]: ~50 fold
K ic of CUL (competitive inhibition, DON as variable substrate) [3]: low µM range
K iu of CUL (uncompetitive inhibition, UDP-glucose as variable substrate) [3]: 1.4 µM
Ki ([3]; read-out: K ic of CUL (competitive inhibition, DON as variable substrate)): < 1 µM
Kd ([3]; read-out: KD of CUL at the acceptor binding site (implied by kinetics)): ~1 µM
K iu of CUL (uncompetitive inhibition, DON as variable substrate) [4]: 217 µM
Ki [4]: 65 µM
Specific activity (glucoside formation) [5]: 2.23 ± 0.08 nmol/min/mg
Specific activity (glucoside formation) [6]: 2.89 ± 0.10 nmol/min/mg
Effect on DON-glucuronidation [7]: suppresses DON-glucuronidation
